Reference: article PMC11638965, “Leveraging Dual-Ligase Recruitment to Enhance Protein Degradation via a Heterotrivalent Proteolysis Targeting Chimera” (Journal of the American Chemical Society, 2024)
“Also recorded” adds a separate entry of the source. Where two headings read alike, the source gives them in different places.

Legend:
RKO CRBN/VHL dKO cells = experiment: Cell viability assay (CellTiter-Glo); type: cell-based, human; settings: read-out: EC50 RKO CRBN/VHL dKO
Protocol: (§1) RKO WT, VHL KO, CRBN KO and CRBN/VHL dKO cells were cultured in Dulbecco’s modified Eagle’s medium supplemented with 10% FCS and 1% penicillin–streptomycin. RKO CRBN KO and VHL KO were generated previously.[45] RKO CRBN/VHL dKO cells were generated by transiently expressing pSpCas9(BB)-2A-GFP (PX458) (Addgene 48138) loaded with a short guide RNA (sgRNA) targeting VHL (Fwd: […], Rev: […]) in RKO CRBN KO cells. Clones were single cell seeded and checked for VHL and CRBN double deletion via Western blot or PCR on genomic DNA (gDNA).
(§2) Cells were seeded in 96-well plates at a cell density of 3750 cells per well and treated for 3 days with DMSO or drug at ten √10 serial diluted concentrations. Starting concentration for all drugs was 10 μM, and each treatment was performed in biological triplicates. Cell viability was assessed using the CellTiter-Glo assay (CellTiter-Glo Luminescent Cell Viability Assay, Promega G7573) according to manufacturer instructions. Luminescence signal was measured on a Multilabel Plate Reader Platform Victor X3 model 2030 (PerkinElmer). Survival curves and EC50 values were determined using GraphPad Prism v.10.0.3 by fitting a nonlinear regression to the log10-transformed drug concentration and the relative viability after normalization of each data point to the mean luminescence of the lowest drug concentration.

RKO VHL KO cells = experiment: Cell viability assay (CellTiter-Glo); type: cell-based, human
Protocol: as §1, §2

RKO CRBN KO cells [1] = experiment: Cell viability assay (CellTiter-Glo); type: cell-based, human; settings: 500 pM to 10 μM, 3 days (Figure 10, Table S6)
CRBN = CRBN (Homo sapiens, UniProt Q96SW2); experiment: NanoBRET lytic and live cell target engagement assay; type: binding; parameters: host or cells: HEK293, transient; settings: for IC50: HEK293 cells with NanoLuc-CRBN, CRBN fluorescent tracer
Sequence of CRBN (Q96SW2 whole entry, the tested form may be a part): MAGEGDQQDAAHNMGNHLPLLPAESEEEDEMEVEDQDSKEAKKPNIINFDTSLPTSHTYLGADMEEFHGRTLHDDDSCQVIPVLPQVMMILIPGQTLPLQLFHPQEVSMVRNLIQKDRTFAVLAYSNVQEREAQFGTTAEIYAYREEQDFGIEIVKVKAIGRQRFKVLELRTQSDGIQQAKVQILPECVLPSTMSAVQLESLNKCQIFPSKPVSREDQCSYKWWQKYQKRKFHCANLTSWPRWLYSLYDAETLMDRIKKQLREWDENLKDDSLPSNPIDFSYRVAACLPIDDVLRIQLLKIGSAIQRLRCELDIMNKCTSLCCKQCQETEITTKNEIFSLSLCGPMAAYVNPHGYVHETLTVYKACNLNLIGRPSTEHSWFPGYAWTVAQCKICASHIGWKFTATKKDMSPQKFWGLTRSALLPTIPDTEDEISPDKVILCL
Sequence of CRBN (Q16531 whole entry partner, the tested form may be a part): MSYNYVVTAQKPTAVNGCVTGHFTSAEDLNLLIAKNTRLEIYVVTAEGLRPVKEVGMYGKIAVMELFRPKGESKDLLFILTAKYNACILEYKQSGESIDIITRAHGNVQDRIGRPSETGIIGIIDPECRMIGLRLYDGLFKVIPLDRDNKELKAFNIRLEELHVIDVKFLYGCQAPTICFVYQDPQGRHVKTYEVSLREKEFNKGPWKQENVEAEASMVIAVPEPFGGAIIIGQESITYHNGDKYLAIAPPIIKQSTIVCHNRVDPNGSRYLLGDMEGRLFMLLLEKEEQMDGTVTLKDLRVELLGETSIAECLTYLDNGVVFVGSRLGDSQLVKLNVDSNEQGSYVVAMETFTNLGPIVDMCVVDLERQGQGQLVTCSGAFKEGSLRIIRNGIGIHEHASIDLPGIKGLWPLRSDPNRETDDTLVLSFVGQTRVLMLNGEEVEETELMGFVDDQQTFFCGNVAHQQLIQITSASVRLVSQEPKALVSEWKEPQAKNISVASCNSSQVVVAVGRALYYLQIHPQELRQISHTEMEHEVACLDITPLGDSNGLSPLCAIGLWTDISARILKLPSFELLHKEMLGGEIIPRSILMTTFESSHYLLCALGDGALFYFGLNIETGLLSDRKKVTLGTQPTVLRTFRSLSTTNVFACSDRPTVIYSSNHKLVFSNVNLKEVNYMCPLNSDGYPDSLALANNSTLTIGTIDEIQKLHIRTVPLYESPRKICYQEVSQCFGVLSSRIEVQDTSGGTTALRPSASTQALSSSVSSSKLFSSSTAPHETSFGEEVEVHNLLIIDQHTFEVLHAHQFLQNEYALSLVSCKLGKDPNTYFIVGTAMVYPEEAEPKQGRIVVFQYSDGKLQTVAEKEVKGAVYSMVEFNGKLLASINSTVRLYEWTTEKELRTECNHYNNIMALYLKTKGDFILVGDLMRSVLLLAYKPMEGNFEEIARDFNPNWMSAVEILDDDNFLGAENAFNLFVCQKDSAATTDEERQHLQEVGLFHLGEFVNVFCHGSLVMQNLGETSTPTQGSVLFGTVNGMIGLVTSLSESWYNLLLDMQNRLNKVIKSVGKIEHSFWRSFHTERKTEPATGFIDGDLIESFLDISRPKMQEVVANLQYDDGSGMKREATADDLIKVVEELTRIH
Protocol: CRBN (N2910, Promega) and VHL (N2930, Promega) NanoBRET target engagement assays were performed according to manufacturer’s instructions. Transfection complexes were prepared using 1 mL Opti-MEM, 30 μL FuGENE HD, and either 9 μg/mL DDB1 Expression Vector and 1 μg/mL NanoLuc-CRBN fusion vector, or 9 μg/mL Transfection Carrier DNA and 1 μg/mL VHL-NanoLuc fusion vector. Transfection complexes were allowed to form for 20 min at room temperature, then were added to 20 mL of HEK293 cells at density of 200,000 cells/mL. Transfected HEK293 cells were plated in a T75 flask and allowed to express protein overnight. The next day, 85 μL of transfected cells (at 200,000 cells/mL) were replated in white nonbinding 96-well plates for live and lytic target engagement measurements. For live mode, a 100x solution of NanoBRET tracer was prepared using 100% DMSO (50 μM for CRBN live-cell, 100 μM for VHL live-cell). 100x tracer was used to prepare 20× tracer using tracer dilution buffer. PROTACs or test compounds were prepared at 10x final concentrations in Opti-MEM. Five μL of the prepared tracer was then dispensed to each well and the plate was mixed on an orbital shaker at 300 rpm for 15 s. Ten μL of each 10x PROTAC dilution was added to the cells and the plate was mixed again before being incubated at a 37 °C, 5% CO2 incubator for 2 or 5 h (as indicated in each figure). After incubation, a 50 μL of a 3X substrate solution (containing 30 μL NanoBRET Nano-Glo Substrate, 10 μL Extracellular NanoLuc inhibitor, and 4960 μL of Opti-MEM) was added to each well. Plates were incubated for 2–3 min at room temperature, then donor emission (450 nm) and acceptor emission (at 610 nm) values were read using a GloMax Discover. For lytic mode, the following changes were made. […] Plates were incubated in darkness for 5 min after digitonin addition to allow for permeabilization. 50 μL of 3X substrate (30 μL NanoBRET Nano-Glo substrate and 4970 μL Opti-MEM) was added to each well and plates were incubated for 1 min at room temperature before being read on a GloMax Discover as above.

RKO CRBN KO cells [2] = experiment: Cell viability assay (CellTiter-Glo); type: cell-based, human; settings: 316 pM to 10 μM, 3 days, n = 3 (Figures 5 and 8C, Table S5)
Protocol: as §1, §2

[3] = Homo sapiens, 72 h, 500 pM to 10 μM, 3 days (Figure 10, Table S6)
[4] = Homo sapiens, 72 h, 316 pM to 10 μM, 3 days, n = 3 (Figures 5 and 8C, Table S5)
[5] = live cells 2 h, read-out: IC50 (Live Cell), Target: CRBN
[6] = lysed with digitonin, read-out: IC50 (Lytic Cell), Target: CRBN

fold stronger engagement of CRBN over 26, live cell format (CRBN; 27 vs 26)	IC50 (CRBN; [5])	IC50 (CRBN; [6])	SMILES	EC50 (RKO CRBN/VHL dKO cells; [3])	EC50 (RKO VHL KO cells; [3])	EC50 (RKO CRBN KO cells [1]; Homo sapiens, 72 h)	EC50 (RKO CRBN/VHL dKO cells; 500 pM to 10 μM, 3 days (Figure 10, Table S6), listed as 94)	EC50 (RKO CRBN KO cells [1]; listed as 94)	CRBN engagement compared to 27 (in words) (CRBN; lytic, live cell 2 h and 5 h (Figure S6), listed as 94)	EC50 (RKO CRBN KO cells [2]; listed as 86)	EC50 (RKO CRBN KO cells [2]; Homo sapiens, 72 h)	EC50 (RKO CRBN/VHL dKO cells; [4])	EC50 (RKO VHL KO cells; 316 pM to 10 μM, 3 days, n = 3 (Figures 5 and 8C, Table S5), listed as 86)	EC50 (RKO VHL KO cells; [4])	EC50 (RKO CRBN KO cells [2]; listed as 27)	EC50 (RKO VHL KO cells; 316 pM to 10 μM, 3 days, n = 3 (Figures 5 and 8C, Table S5), listed as 27)
			Cc1ncsc1-c1ccc([C@H](C)NC(=O)[C@@H]2C[C@H](O)CN2C(=O)[C@@H](NC(=O)COCC(C)(COCCOCCOCCNc2cc3c(cc2F)C(=O)N(C2CCC(=O)N(C)C2=O)C3=O)COCCOCCOCCOC(=O)C[C@@H]2N=C(c3ccc(Cl)cc3)c3c(sc(C)c3C)-n3c(C)nnc32)C(C)(C)C)cc1 (mixture of isomers) [neg-cis-AB3067 (95), (17S)-11-((2-(2-(2-((6-fluoro-2-(1-methyl-2,6-dioxopiperidin-3-yl)-1,3-dioxoisoindolin-5-yl)amino)ethoxy)ethoxy)ethoxy)methyl)-17-((2S,4S)-4-hydroxy-2-(((S)-1-(4-(4-methylthiazol-5-yl)phenyl)ethyl)carbamoyl)pyrrolidine-1-carbonyl)-11,18,18-trimethyl-15-oxo-3,6,9,13-tetraoxa-16-azanonadecyl 2-((S)-4-(4-chlorophenyl)-2,3,9-trimethyl-6H-thieno[3,2-f][1,2,4]triazolo[4,3-a][1,4]diazepin-6-yl)acetate]	657 nM	522 nM	586 nM										
			Cc1ncsc1-c1ccc([C@H](C)NC(=O)[C@@H]2C[C@H](O)CN2C(=O)[C@@H](NC(=O)COCC(C)(COCCOCCOCCNc2cc3c(cc2F)C(=O)N(C2CCC(=O)NC2=O)C3=O)COCCOCCOCCOC(=O)C[C@@H]2N=C(c3ccc(Cl)cc3)c3c(sc(C)c3C)-n3c(C)nnc32)C(C)(C)C)cc1 (mixture of isomers) [cis-AB3067 (94), (17S)-11-((2-(2-(2-((2-(2,6-dioxopiperidin-3-yl)-6-fluoro-1,3-dioxoisoindolin-5-yl)amino)ethoxy)ethoxy)ethoxy)methyl)-17-((2S,4S)-4-hydroxy-2-(((S)-1-(4-(4-methylthiazol-5-yl)phenyl)ethyl)carbamoyl)pyrrolidine-1-carbonyl)-11,18,18-trimethyl-15-oxo-3,6,9,13-tetraoxa-16-azanonadecyl 2-((S)-4-(4-chlorophenyl)-2,3,9-trimethyl-6H-thieno[3,2-f][1,2,4]triazolo[4,3-a][1,4]diazepin-6-yl)acetate]	804 nM	48 nM	832 nM	~820 nM	~820 nM	slight improvement in binding to CRBN after 2 h; also recorded: even greater binding to CRBN after 5 h compared to 27							
			Cc1ncsc1-c1ccc(CNC(=O)[C@@H]2C[C@@H](O)CN2C(=O)[C@@H](NC(=O)COCC(COCCOCCOCCNc2cc3c(cc2F)C(=O)N(C2CCC(=O)NC2=O)C3=O)(COCCOCCOCCOC(=O)C[C@@H]2N=C(c3ccc(Cl)cc3)c3c(sc(C)c3C)-n3c(C)nnc32)COCCOCCOCCOC(=O)C[C@@H]2N=C(c3ccc(Cl)cc3)c3c(sc(C)c3C)-n3c(C)nnc32)C(C)(C)C)cc1 (mixture of isomers) [AB3124 (86)]							62 nM	34 nM	16 nM	34 nM	62 nM		
2.5 fold	624 nM	190 nM	Cc1ncsc1-c1ccc([C@H](C)NC(=O)[C@@H]2C[C@@H](O)CN2C(=O)[C@@H](NC(=O)COCC(C)(COCCOCCOCCNc2cc3c(cc2F)C(=O)N(C2CCC(=O)NC2=O)C3=O)COCCOCCOCCOC(=O)C[C@@H]2N=C(c3ccc(Cl)cc3)c3c(sc(C)c3C)-n3c(C)nnc32)C(C)(C)C)cc1 (mixture of isomers) [AB3067 (27), (17S)-11-((2-(2-(2-((2-(2,6-dioxopiperidin-3-yl)-6-fluoro-1,3-dioxoisoindolin-5-yl)amino)ethoxy)ethoxy)ethoxy)methyl)-17-((2S,4R)-4-hydroxy-2-(((S)-1-(4-(4-methylthiazol-5-yl)phenyl)ethyl)carbamoyl)pyrrolidine-1-carbonyl)-11,18,18-trimethyl-15-oxo-3,6,9,13-tetraoxa-16-azanonadecyl 2-((S)-4-(4-chlorophenyl)-2,3,9-trimethyl-6H-thieno[3,2-f][1,2,4]triazolo[4,3-a][1,4]diazepin-6-yl)acetate]	818 nM	110 nM	82 nM					180 nM	988 nM		133 nM	133 nM	180 nM
	1560 nM	412 nM	Cc1ncsc1-c1ccc(CNC(=O)[C@@H]2C[C@@H](O)CN2C(=O)[C@@H](NC(=O)COCC(C)(COCCOCCOCCNc2cc3c(cc2F)C(=O)N(C2CCC(=O)NC2=O)C3=O)COCCOCCOCCOC(=O)C[C@@H]2N=C(c3ccc(Cl)cc3)c3c(sc(C)c3C)-n3c(C)nnc32)C(C)(C)C)cc1 (mixture of isomers) [AB3063 (26), (17S)-11-((2-(2-(2-((2-(2,6-dioxopiperidin-3-yl)-6-fluoro-1,3-dioxoisoindolin-5-yl)amino)ethoxy)ethoxy)ethoxy)methyl)-17-((2S,4R)-4-hydroxy-2-((4-(4-methylthiazol-5-yl)benzyl)carbamoyl)pyrrolidine-1-carbonyl)-11,18,18-trimethyl-15-oxo-3,6,9,13-tetraoxa-16-azanonadecyl 2-((S)-4-(4-chlorophenyl)-2,3,9-trimethyl-6H-thieno[3,2-f][1,2,4]triazolo[4,3-a][1,4]diazepin-6-yl)acetate]									2240 nM				
